Values of other authors, collected in US20110129540A1, “Polymer of acrylic or methacrylic type comprising alpha-tocopherol grafts” (Flamel Technologies, priority 2009, published 2011).
Values after ≈ are worked out from the molar mass of the structure shown.

Settings: no polymer

## COc1ccccc1OCCNCC(O)COc1cccc2[nH]c3ccccc3c12 (stereo not shown) [carvedilol]
  Solubility in pure water: 50 µg/mL (≈ 123 µM)
